We go through 51 compounds from US10851064B2, “ACSS2 inhibitors and methods of use thereof” (METABOMED LTD., priority 2017, dated 2020).
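Further: Cell-free human ACSS2 enzyme reaction with acetate, CoA and ATP, 90 min at 37 C, coupled to pyrophosphatase, phosphate release detected by Biomol Green absorbance at 620 nm.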

For the experiment, the target named is ACSS2 (Homo sapiens, UniProt Q9NR19). The experiment can be described thus: biochemical.
Chain of ACSS2 (Q9NR19 whole entry): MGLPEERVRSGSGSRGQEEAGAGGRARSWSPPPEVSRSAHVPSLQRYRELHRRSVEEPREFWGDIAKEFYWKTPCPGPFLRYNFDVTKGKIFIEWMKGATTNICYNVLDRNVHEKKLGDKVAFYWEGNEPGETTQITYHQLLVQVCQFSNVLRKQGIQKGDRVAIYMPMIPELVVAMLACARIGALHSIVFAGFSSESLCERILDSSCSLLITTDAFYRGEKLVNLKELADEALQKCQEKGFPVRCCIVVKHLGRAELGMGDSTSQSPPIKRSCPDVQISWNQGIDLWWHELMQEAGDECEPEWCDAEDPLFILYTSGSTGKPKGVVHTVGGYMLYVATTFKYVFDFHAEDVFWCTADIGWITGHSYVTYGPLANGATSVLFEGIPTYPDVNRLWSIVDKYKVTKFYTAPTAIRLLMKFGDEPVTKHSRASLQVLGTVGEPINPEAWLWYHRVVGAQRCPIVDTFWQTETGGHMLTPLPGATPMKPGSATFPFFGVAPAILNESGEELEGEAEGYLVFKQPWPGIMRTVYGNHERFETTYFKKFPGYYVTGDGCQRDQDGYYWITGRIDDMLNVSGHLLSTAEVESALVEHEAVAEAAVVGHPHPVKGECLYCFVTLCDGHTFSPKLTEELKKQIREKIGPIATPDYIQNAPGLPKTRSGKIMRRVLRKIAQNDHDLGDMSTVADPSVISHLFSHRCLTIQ
With `CC1=NN(c2ccc(OC(F)F)c(-c3nnc(C)o3)c2)C(=O)C1C(=O)Nc1cccc(C(C)(F)F)c1` (stereo not drawn) [compound 429], the IC50 fell in the range of 0.01 to 6 nM.

Compound `CC1=NN(c2ccccc2)C(=O)C1C(=O)Nc1cccc(C(=O)O)c1` (stereo not drawn) [compound 116, 3-(3-methyl-5-oxo-1-phenyl-4,5-dihydro-1H-pyrazole-4-carboxamido)benzoic acid] showed an IC50 of 1000 to 100000 nM.

For `CCC(F)(F)c1cccc(NC(=O)C2C(=O)N(c3ccc4cc[nH]c4c3)N=C2C)c1` (stereo not drawn) [compound 369], the IC50 fell in the range of 0.01 to 6 nM.

`COc1ccc(N2N=C(C)C(C(=O)Nc3cccc(-c4ncco4)c3)C2=O)cc1` (stereo not drawn) [compound 256] came in with an IC50 of 6 to 100 nM.

The compound `CC1=NN(c2cccc(C#CCNC(=O)COCCOCC(=O)Nc3cccc4c3C(=O)N(C3CCC(=O)NC3=O)C4=O)c2)C(=O)C1C(=O)Nc1cccc(C(C)(F)F)c1` (stereo not drawn) [compound 381] yielded an IC50 of 0.01 to 6 nM.

Consider `CC1=NN(c2ccccc2)C(=O)C1C(=O)NC(C)C` (stereo not drawn) [compound 200, N-isopropyl-3-methyl-5-oxo-1-phenyl-4,5-dihydro-1H-pyrazole-4-carboxamide], for which the IC50 is above 100000 nM.

For the compound `CC1=NN(c2cc(Cc3ccccc3Cl)cc(-c3cccnc3)c2)C(=O)C1C(=O)Nc1cccc(C(C)(F)F)c1` (stereo not drawn) [compound 406], the IC50 was in the range of 0.01 to 6 nM.

In the case of `CCC1=NN(c2ccccc2)C(=O)C1C(=O)Nc1cccc(CC)c1` (stereo not drawn) [compound 136, 3-ethyl-N-(3-ethylphenyl)-5-oxo-1-phenyl-4,5-dihydro-1H-pyrazole-4-carboxamide], the IC50 was 1000 to 100000 nM.

For the compound `CC1=NN(c2ccc(OC(F)F)cc2)C(=O)C1C(=O)N(C)c1cc(F)cc(Cl)c1` (stereo not drawn) [compound 394], the IC50 is 100 to 1000 nM.

Regarding `CC1=NN(c2ccc(OC(F)(F)F)cc2)C(=O)C1C(=O)Nc1cc(C(C)(F)F)cs1` (stereo not drawn) [compound 296], the IC50 was in the range of 6 to 100 nM.

For the compound `CC1=NN(c2ccccc2)C(=O)C1C(=O)Nc1cccc2ccccc12` (stereo not drawn) [compound 185, 3-methyl-N-(naphthalen-1-yl)-5-oxo-1-phenyl-4,5-dihydro-1H-pyrazole-4-carboxamide], the IC50 lay within 1000 to 100000 nM.

`CC1=NN(c2ccccc2)C(=O)C1C(=O)Nc1nccs1` (stereo not drawn) [compound 217, 3-methyl-5-oxo-1-phenyl-N-(thiazol-2-yl)-4,5-dihydro-1H-pyrazole-4-carboxamide]: the IC50 is above 100000 nM.

Regarding `CC1=NN(c2cc(-c3ccccc3)cc(-c3ccsc3)c2)C(=O)C1C(=O)Nc1cccc(C(C)(F)F)c1` (stereo not drawn) [compound 372], the IC50 is 0.01 to 6 nM.

In turn, `COc1ccc(N2N=C(C)C(C(=O)Nc3cccc(C(C)(F)F)c3)C2=O)c(C(C)(C)C)c1` (stereo not drawn) [compound 460] had a 50% inhibitory concentration (IC50) of 0.01 to 6 nM.

The compound `CCc1cccc(NC(=O)C2C(=O)N(c3ccccc3)N=C2c2ccccn2)c1` (stereo not drawn) [compound 156, N-(3-ethylphenyl)-5-oxo-1-phenyl-3-(pyridin-2-yl)-4,5-dihydro-1H-pyrazole-4-carboxamide] yielded an IC50 of 1000 to 100000 nM.

Take `COc1ccc(N2N=C(C)C(C(=O)Nc3cccc(C(C)(F)F)c3)C2=O)cc1-c1ccc[n+]([O-])c1` (stereo not drawn) [compound 417]: the IC50 fell in the range of 100 to 1000 nM.

As to `CC1=NN(c2ccc(OC(F)F)cc2)C(=O)C1C(=O)Nc1cccc(C(C)(F)F)c1` (stereo not drawn) [compound 418], the IC50 fell in the range of 100 to 1000 nM.

The compound `CCCn1ccc2ccc(N3N=C(C)C(C(=O)Nc4cccc(C(F)(F)CC)c4)C3=O)cc21` (stereo not drawn) [compound 359] yielded an IC50 of 0.01 to 6 nM.

The compound `CC1=NN(c2ccccc2)C(=O)C1C(=O)Nc1cccc(CN)c1` (stereo not drawn) [compound 223, N-(3-(aminomethyl)phenyl)-3-methyl-5-oxo-1-phenyl-4,5-dihydro-1H-pyrazole-4-carboxamide] gave an IC50 of 1000 to 100000 nM.

On to `COc1ccc(N2N=C(C)C(C(=O)Nc3cccc(C(C)(F)F)c3)C2=O)cc1-c1nnc(C)o1` (stereo not drawn) [compound 430], for which the IC50 was 0.01 to 6 nM.

The compound `CC1=NN(c2ccc(C(F)(F)F)cc2)C(=O)C1C(=O)Nc1cccc(-c2ncc[nH]2)c1` (stereo not drawn) [compound 148, N-(3-(1H-imidazol-2-yl)phenyl)-3-methyl-5-oxo-1-(4-(trifluoromethyl)phenyl)-4,5-dihydro-1H-pyrazole-4-carboxamide] returned an IC50 of 6 to 100 nM.

Consider `CC1=NN(c2cccc(C#CCNC(=O)COCCOCCOCC(=O)Nc3cccc4c3C(=O)N(C3CCC(=O)NC3=O)C4=O)c2)C(=O)C1C(=O)Nc1cccc(C(C)(F)F)c1` (stereo not drawn) [compound 380], for which the IC50 was 0.01 to 6 nM.

Consider `CC1=NN(c2ccccc2)C(=O)C1C(=O)Nc1cccc(CN(C)C)c1` (stereo not drawn) [compound 131, N-(3-((dimethylamino)methyl)phenyl)-3-methyl-5-oxo-1-phenyl-4,5-dihydro-1H-pyrazole-4-carboxamide], for which the IC50 is 1000 to 100000 nM.

`CC1=NN(c2ccccc2)C(=O)C1C(=O)Nc1cccc(CC(C)C)c1` (stereo not drawn) [compound 147, N-(3-isobutylphenyl)-3-methyl-5-oxo-1-phenyl-4,5-dihydro-1H-pyrazole-4-carboxamide] came in with an IC50 of 100 to 1000 nM.

`CC1=NN(c2ccc(C(F)(F)F)cc2)C(=O)C1C(=O)Nc1cccc(-c2cnccn2)c1` (stereo not drawn) [compound 150, 3-methyl-5-oxo-N-(3-(pyrazin-2-yl)phenyl)-1-(4-(trifuoromethyl)phenyl)-4,5-dihydro-1H-pyrazole-4-carboxamide]: the IC50 is 6 to 100 nM.

`CC1=NN(c2ccc(C3COC3)cc2)C(=O)C1C(=O)Nc1cccc(C(C)(F)F)c1` (stereo not drawn) [compound 348] gave an IC50 of 6 to 100 nM.

`COc1ccc(N2N=C(C)C(C(=O)Nc3cccc(C4COC4)c3)C2=O)cc1` (stereo not drawn) [compound 354] returned an IC50 of 6 to 100 nM.

Regarding `CC1=NN(c2ccc(C(F)(F)F)cc2)C(=O)C1C(=O)Nc1cccc(-c2ccco2)c1` (stereo not drawn) [compound 162, N-(3-(furan-2-yl)phenyl)-3-methyl-5-oxo-1-(4-(trifluoromethyl)phenyl)-4,5-dihydro-1H-pyrazole-4-carboxamide], the IC50 lay in the range of 6 to 100 nM.

The compound `CC1=NN(c2cccc(C(=O)O)c2)C(=O)C1C(=O)Nc1cccc(-c2ncc[nH]2)c1` (stereo not drawn) [compound 172] came in with an IC50 of 6 to 100 nM.

`COc1ccc(N2N=C(C)C(C(=O)Nc3cccc(C(C)(F)F)c3)C2=O)cc1-c1cc[n+]([O-])cc1` (stereo not drawn) [compound 345] showed an IC50 of 100 to 1000 nM.

Compound `CC1=NN(c2ccccc2)C(=O)C1C(=O)Nc1ccccn1` (stereo not drawn) [compound 214, 3-methyl-5-oxo-1-phenyl-N-(pyridin-2-yl)-4,5-dihydro-1H-pyrazole-4-carboxamide] showed a concentration for half-maximal inhibition (IC50) above 100000 nM.

The compound `CC1=NN(c2cccc(S(=O)(=O)N(C)C)c2)C(=O)C1C(=O)Nc1cccc(-c2cnccn2)c1` (stereo not drawn) [compound 272] yielded a concentration for half-maximal inhibition (IC50) of 6 to 100 nM.

The compound `CCc1cccc(NC(=O)c2c(C)nn(-c3ccc(NC)cc3)c2OC(=O)N(C)C)c1` [compound 224, 4-((3-ethylphenyl)carbamoyl)-3-methyl-1-(4-(methylamino)phenyl)-1H-pyrazol-5-yl dimethylcarbamate] showed an IC50 of 1000 to 100000 nM.

Regarding `CC1=NN(c2ccccc2)C(=O)C1C(=O)Nc1ccc2c(c1)C(=O)OC2` (stereo not drawn) [compound 122, 3-methyl-5-oxo-N-(3-oxo-1,3-dihydroisobenzofuran-5-yl)-1-phenyl-4,5-dihydro-1H-pyrazole-4-carboxamide], the half-maximal inhibitory concentration (IC50) fell in the range of 1000 to 100000 nM.

Turning to `CC1=NN(c2ccccc2)C(=O)C1C(=O)Nc1cccc(O)c1` (stereo not drawn) [compound 222, N-(3-hydroxyphenyl)-3-methyl-5-oxo-1-phenyl-4,5-dihydro-1H-pyrazole-4-carboxamide], the IC50 lay in the range of 1000 to 100000 nM.

The compound `CC1=NN(c2ccccc2)C(=O)C1C(=O)Nc1cccc(Cl)c1` (stereo not drawn) [compound 210, N-(3-chlorophenyl)-3-methyl-5-oxo-1-phenyl-4,5-dihydro-1H-pyrazole-4-carboxamide] had an IC50 of 6 to 100 nM.

`CC1=NN(c2ccc3[nH]cnc3c2)C(=O)C1C(=O)Nc1cccc(C(C)(F)F)c1` (stereo not drawn) [compound 405] gave an IC50 of 6 to 100 nM.

For the compound `CC1=NN(c2ccc(OC3CCCCC3)cc2)C(=O)C1C(=O)Nc1cccc(C(C)(F)F)c1` (stereo not drawn) [compound 443], the IC50 lay in the range of 0.01 to 6 nM.

In turn, `CC1=NN(c2ccc(OC(F)F)cc2)C(=O)C1C(=O)Nc1cc(C(C)(F)F)cc2ccoc12` (stereo not drawn) [compound 403] returned an IC50 of 6 to 100 nM.

Take `CCCc1cc(-c2ccccc2)cc(N2N=C(C)C(C(=O)Nc3cccc(C(C)(F)F)c3)C2=O)c1` (stereo not drawn) [compound 400]: the IC50 fell in the range of 6 to 100 nM.

The compound `CCCCCc1cccc(NC(=O)C2C(=O)N(c3ccccc3)N=C2C)c1` (stereo not drawn) [compound 118, 3-methyl-5-oxo-N-(3-pentylphenyl)-1-phenyl-4,5-dihydro-1H-pyrazole-4-carboxamide] showed an IC50 of 1000 to 100000 nM.

`CCc1cccc(NC(=O)C2C(=O)N(c3ccccc3)N=C2Cc2ccccc2)c1` (stereo not drawn) [compound 129, 3-benzyl-N-(3-ethylphenyl)-5-oxo-1-phenyl-4,5-dihydro-1H-pyrazole-4-carboxamide]: the IC50 lay within 1000 to 100000 nM.

Take `CC1=NN(c2cccc(C#CCN)c2)C(=O)C1C(=O)Nc1cccc(C(C)(F)F)c1` (stereo not drawn) [compound 356]: the IC50 is 6 to 100 nM.

As to `CC1=NN(c2ccc(OC(F)F)cc2)C(=O)C1C(=O)Nc1cccc(C(C)(O)c2ccccc2)c1` (stereo not drawn) [compound 337], the IC50 is 6 to 100 nM.

In turn, `CCc1cccc(NC(=O)C2C(=O)N(c3ccccc3)N=C2c2ccccc2)c1` (stereo not drawn) [compound 126, N-(3-ethylphenyl)-5-oxo-1,3-diphenyl-4,5-dihydro-1H-pyrazole-4-carboxamide] registered an IC50 of 1000 to 100000 nM.

`CC1=NN(c2ccc3ccn(C(C)C)c3c2)C(=O)C1C(=O)Nc1cccc(C(C)(F)F)c1` (stereo not drawn) [compound 364]: the IC50 lay within 0.01 to 6 nM.

The compound `CCc1cccc(NC(=O)C2C(=O)N(c3ccc(NC(C)=O)cc3)N=C2C)c1` (stereo not drawn) [compound 144, 1-(4-acetamidophenyl)-N-(3-ethylphenyl)-3-methyl-5-oxo-4,5-dihydro-1H-pyrazole-4-carboxamide] showed an IC50 of 100 to 1000 nM.

Consider `CC1=NN(c2ccc(OC(F)F)cc2)C(=O)C1C(=O)Nc1cccc2[nH]ccc12` (stereo not drawn) [compound 350], for which the IC50 was in the range of 100 to 1000 nM.

Take `CC1=NN(c2ccc(OC(F)F)c(-c3ccccc3)c2)C(=O)C1C(=O)Nc1cccc(C(C)(F)F)c1` (stereo not drawn) [compound 453]: the IC50 lay in the range of 0.01 to 6 nM.

`CC1=NN(c2ccc3ccn(Cc4ccccc4)c3c2)C(=O)C1C(=O)Nc1cccc(C(C)(F)F)c1` (stereo not drawn) [compound 367] displayed an IC50 of 0.01 to 6 nM.

Turning to `COc1ccc(N2N=C(C)C(C(=O)Nc3ccccc3)C2=O)cc1` (stereo not drawn) [compound 197, 1-(4-methoxyphenyl)-3-methyl-5-oxo-N-phenyl-4,5-dihydro-1H-pyrazole-4-carboxamide], the half-maximal inhibitory concentration (IC50) was in the range of 1000 to 100000 nM.
